# Patent US20240316051A1, “A PHARMACEUTICAL COMBINATION AND USE THEREOF” (Ascentage Pharma (Suzhou) Co., Ltd., priority 2021, published 2024)
# Molecular target: T1, EED (1-441)-His protein (Homo sapiens, UniProt O75530)
# T1 construct: 20 nM EED (1-441)-His protein
# Experiment: EED-H3K27Me3 peptide competition binding assay by AlphaScreen
# Details: IC50 class, Table 4B, read-out: Alpha screen
# In short: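 EED(1-441)-His was preincubated 15 min with compound, then biotin-H3K27Me3(19-33) peptide added for 30 min; both were added as 20 nM solutions in 25 mM HEPES pH 8, 0.02% Tween-20, 0.5% BSA. Ni-chelate acceptor and streptavidin donor beads (10 μg/ml each final) were added for 1 h in the dark at RT. Signal read at 615 nm (680 nm excitation), normalised to controls and fitted to dose-response for IC50.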
# T1 sequence (O75530 whole entry): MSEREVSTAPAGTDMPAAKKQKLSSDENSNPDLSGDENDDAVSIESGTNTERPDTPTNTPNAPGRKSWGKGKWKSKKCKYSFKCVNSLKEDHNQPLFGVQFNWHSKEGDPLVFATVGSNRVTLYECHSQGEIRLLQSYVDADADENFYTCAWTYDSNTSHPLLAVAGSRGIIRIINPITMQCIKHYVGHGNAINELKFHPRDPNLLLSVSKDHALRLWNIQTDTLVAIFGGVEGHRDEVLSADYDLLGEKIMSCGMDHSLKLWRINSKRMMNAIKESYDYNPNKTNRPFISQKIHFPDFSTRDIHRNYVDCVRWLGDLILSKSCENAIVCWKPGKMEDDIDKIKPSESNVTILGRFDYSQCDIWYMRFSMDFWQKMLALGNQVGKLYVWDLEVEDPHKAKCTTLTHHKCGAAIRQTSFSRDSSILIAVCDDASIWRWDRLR
row,Structure (SMILES),IC50
1,"Fc1ccc2c(c1CNc1ncc3c4c(ncn14)-c1nccn1Cc1cc(C(F)(F)F)ncc1-3)CCO2 [E 33, N-((5-fluoro-2,3-dihydrobenzofuran-4-yl)methyl)-8-(trifluoromethyl)-6H-2,3,5a,9,12,13a-hexaaza-benzo[4,5]cyclopenta[7,8]cycloocta[1,2,3-cd]inden-13-amine]",10 to 100 nM
2,"Cc1ccc2c(n1)Cn1ccnc1-c1ncn3c(NCc4c(F)ccc5c4CCO5)ncc-2c13 [E 34, N-((5-fluoro-2,3-dihydrobenzofuran-4-yl)methyl)-8-methyl-6H-2,3,5a,7,12,13a-hexaazabenzo[4,5] cyclopenta[7,8]cycloocta[1,2,3-cd]inden-13-amine]",10 to 100 nM
3,"CCc1ccc2c(n1)CN(CC(F)F)C(=O)c1ncn3c(NCc4c(F)ccc5c4CCO5)ncc-2c13 [E 13, 4-(2,2-difluoroethyl)-7-ethyl-12-(((5-fluoro-2,3-dihydrobenzofuran-4-yl)methyl)amino)-4,5-dihydro-3H-2,4,6,11,12a-pentaazabenzo[4,5]cycloocta [1,2,3-cd]inden-3-one]",< 10 nM
4,"O=C1c2ncn3c(NCc4c(F)ccc5c4CCO5)ncc(c23)-c2ccc(CC3COCCO3)nc2CN1CC(F)(F)F (stereo not shown) [E 49, 7-((1,4-dioxan-2-yl)methyl)-12-(((5-fluoro-2,3-dihydrobenzofuran-4-yl)methyl)amino)-4-(2,2,2-trifluoroethyl)-4,5-dihydro-3H-2,4,6,11,12a-pentaazabenzo[4,5]cycloocta[1,2,3-cd] inden-3-one]",< 10 nM
5,"O=C1NCCc2ccccc2-c2cnc(NCc3c(F)ccc4c3CCO4)n3cnc1c23 [E 28, 13-(((5-fluoro-2,3-dihydrobenzofuran-4-yl)methyl)amino)-5,6-dihydro-2,4, 12, 13a-tetraazabenzo[4,5] cyclonona[1,2,3-cd]inden-3(4H)-one]",10 to 100 nM
6,"Cc1ccc2c(n1)CCN(CC(F)(F)F)C(=O)c1ncn3c(NCc4c(F)ccc5c4CCO5)ncc-2c13 [E 30, 13-(((5-fluoro-2,3-dihydrobenzofuran-4-yl)methyl)amino)-8-methyl-4-(2,2,2-trifluoroethyl)-5,6-dihydro-2,4,7,12,13a-pentaazabenzo[4,5] cyclonona[1,2,3-cd]inden-3(4H)-one]",10 to 100 nM

# Same assay, conditions: Table 4A, read-out: Alpha screen
row,Structure (SMILES),IC50
1,"CC(C)(F)CN1Cc2cc(F)ccc2-c2cnc(NCc3c(F)ccc4c3CCO4)n3cnc(c23)C1=O [Compound 78, 7-fluoro-12-(((5-fluoro-2,3-dihydrobenzofuran-4-yl)methyl)amino)-4-(2-fluoro-2-methylpropyl)-4,5-dihydro-3H-2,4,11,12a-tetraazabenzo[4,5] cycloocta[1,2,3-cd]inden-3-one]",3.23 nM
2,"O=C1c2ncn3c(NCc4c(F)ccc5c4CCO5)ncc(c23)-c2ccc(F)cc2CN1CCF [Compound 79, 7-fluoro-12-(((5-fluoro-2,3-dihydrobenzofuran-4-yl)methyl)amino)-4-(2-fluoroethyl)-4,5-dihydro-3H-2,4,11,12a-tetraazabenzo[4,5]cycloocta [1,2,3-cd]inden-3-one]",1.61 nM
3,"CC(F)(F)CN1Cc2cc(F)ccc2-c2cnc(NCc3c(F)ccc4c3CCO4)n3cnc(c23)C1=O [Compound 76, 4-(2,2-difluoropropyl)-7-fluoro-12-(((5-fluoro-2,3-dihydrobenzofuran-4-yl)methyl)amino)-4,5-dihydro-3H-2,4,11,12a-tetraazabenzo[4,5]cycloocta [1,2,3-cd]inden-3-one]",0.97 nM
4,"Cn1cc2c(n1)COC(=O)c1ncn3c(NCc4c(F)ccc5c4CCO5)ncc-2c13 [Compound 54, 11-(((5-fluoro-2,3-dihydrobenzofuran-4-yl)methyl)amino)-7-methyl-5,7-dihydro-3H-4-oxa-2,6,7,10, 11a-pentaazacyclopenta[4,5]cycloocta[1,2,3-cd] inden-3-one]",0.95 nM
5,"COc1cccc(F)c1CNc1ncc2c3c(ncn13)C(=O)N(C1CC1)Cc1cc(C(F)(F)F)ncc1-2 [Compound 70, 4-cyclopropyl-12-((2-fluoro-6-methoxybenzyl)amino)-7-(trifluoromethyl)-4,5-dihydro-3H-2,4,8, 11,12a-pentaazabenzo[4,5]cycloocta[1,2,3-cd] inden-3-one]",> 100 nM
6,"CC(C)(F)CN1Cc2cc(C(F)(F)F)ccc2-c2cnc(NCc3c(F)ccc4c3CCO4)n3cnc(c23)C1=O [Compound 62, 12-(((5-fluoro-2,3-dihydrobenzofuran-4-yl)methyl)amino)-4-(2-fluoro-2-methylpropyl)-7-(trifluoromethyl)-4,5-dihydro-3H-2,4, 11,12a-tetraazabenzo [4,5]cycloocta[1,2,3-cd]inden-3-one]",1.44 nM
7,"COc1cccc(F)c1CNc1ncc2c3c(ncn13)C(=O)N(C(C)C)Cc1nc(C(F)(F)F)ccc1-2 [Compound 71, 12-((2-fluoro-6-methoxybenzyl)amino)-4-isopropyl-7-(trifluoromethyl)-4,5-dihydro-3H-2,4,6,11,12a-pentaazabenzo[4,5]cycloocta[1,2,3-cd]inden-3-one]",8.94 nM
8,"CC1(O)CC(CN2Cc3cc(C(F)(F)F)ncc3-c3cnc(NCc4c(F)ccc5c4CCO5)n4cnc(c34)C2=O)C1 (stereo not shown) [Compound 49, 12-(((5-fluoro-2,3-dihydrobenzofuran-4-yl)methyl)amino)-4-((3-hydroxy-3-methylcyclobutyl)methyl)-7-(trifluoromethyl)-4,5-dihydro-3H-2,4,8,11,12a-pentaazabenzo[4,5]cycloocta[1,2,3-cd]inden-3-one]",1.81 nM
9,"O=C1c2ncn3c(NCc4c(F)ccc5c4CCO5)ncc(c23)-c2ccc(C(F)(F)F)nc2CN1CC1CC1 [Compound 55, 4-(cyclopropylmethyl)-12-(((5-fluoro-2,3-dihydrobenzofuran-4-yl)methyl)amino)-7-(trifluoromethyl)-4,5-dihydro-3H-2,4,6,11,12a-pentaazabenzo[4,5] cycloocta[1,2,3-cd]inden-3-one]",2.14 nM
10,"O=C1OCc2nc(C(F)(F)F)ccc2-c2cnc(NCc3c(F)ccc4c3CCO4)n3cnc1c23 [Compound 14, 12-(((5-fluoro-2,3-dihydrobenzofuran-4-yl)methyl)amino)-7-(trifluoromethyl)-3H,5H-4-oxa-2,6,11, 12a-tetraazabenzo[4,5]cycloocta[1,2,3-cd]inden-3-one]",3.35 nM
11,"CN1CCC(N2Cc3cc(C(F)(F)F)ccc3-c3cnc(NCc4c(F)ccc5c4CCO5)n4cnc(c34)C2=O)CC1 [Compound 74, 12-(((5-fluoro-2,3-dihydrobenzofuran-4-yl)methyl)amino)-4-(1-methylpiperidin-4-yl)-7-(trifluoro-methyl)-4,5-dihydro-3H-2,4,11,12a-tetraazabenzo [4,5]cycloocta[1,2,3-cd]inden-3-one]",1.67 nM
12,"O=C1NCc2ccccc2-c2cnc(NCc3c(F)ccc4c3CCO4)n3cnc1c23 [Compound 15, 12-(((5-fluoro-2,3-dihydrobenzofuran-4-yl)methyl)amino)-4,5-dihydro-3H-2,4,11,12a-tetraazabenzo [4,5]cycloocta[1,2,3-cd]inden-3-one]",0.52 nM
13,"O=C1OCc2cc(OC(F)(F)F)ccc2-c2cnc(NCc3c(F)ccc4c3CCO4)n3cnc1c23 [Compound 31, 12-(((5-fluoro-2,3-dihydrobenzofuran-4-yl)methyl)amino)-7-(trifluoromethoxy)-3H,5H-4-oxa-2,11, 12a-triazabenzo[4,5]cycloocta[1,2,3-cd]inden-3-one]",0.604 nM
14,"CC1(O)CC(CN2Cc3nc(C(F)(F)F)ccc3-c3cnc(NCc4c(F)ccc5c4CCO5)n4cnc(c34)C2=O)C1 (stereo not shown) [Compound 47, 12-(((5-fluoro-2,3-dihydrobenzofuran-4-yl)methyl)amino)-4-((3-hydroxy-3-methylcyclobutyl)methyl)-7-(trifluoromethyl)-4,5-dihydro-3H-2,4,6,11,12a-pentaazabenzo[4,5]cycloocta[1,2,3-cd]inden-3-one]",0.91 nM
15,"O=C1c2ncn3c(NCc4c(F)ccc5c4CCO5)ncc(c23)-c2ccc(F)cc2CN1CC(F)F [Compound 80, 4-(2,2-difluoroethyl)-7-fluoro-12-(((5-fluoro-2,3-dihydrobenzofuran-4-yl)methyl)amino)-4,5-dihydro-3H-2,4,11,12a-tetraazabenzo[4,5]cycloocta[1,2,3-cd]inden-3-one]",1.61 nM
16,"O=C1NCc2ncccc2-c2cnc(NCc3c(F)ccc4c3CCO4)n3cnc1c23 [Compound 16, 12-(((5-fluoro-2,3-dihydrobenzofuran-4-yl)methyl)amino)-4,5-dihydro-3H-2,4,6,11,12a-pentaazabenzo[4,5]cycloocta[1,2,3-cd]inden-3-one]",0.7 nM

# System: human B cell lymphoma cell KARPAS422
# Experiment: Cell proliferation (WST-8), KARPAS422, 7 days
# Type: cell-based
# Details: KARPAS-422, 168 h, WST-8, Table 4A, read-out: Karpas Cell line
# Protocol: Analysis of Cell Proliferation:
# To assess the effect of PRC2 inhibition on cell growth, cells were seeded in 96-well cell culture plates at a density of 2 000-3 000 cells/well in 200 μL of culture medium, and treated with serially diluted compounds for 7 days at 37° C. in an atmosphere of 5% CO2. Cell growth was evaluated by a […] WST-8 assay (Dojindo Molecular Technologies) using a Tecan Infinite M1000 multimode microplate reader (Tecan, Morrisville, NC). The WST-8 reagent was added to the plate, incubated for 1-4 h, and read at 450 nm. The readings were normalized to the DMSO-treated cells, and the IC50 was calculated by nonlinear regression analysis using GraphPad Prism 6 software
row,Structure (SMILES),IC50
1,"CC(C)(F)CN1Cc2cc(F)ccc2-c2cnc(NCc3c(F)ccc4c3CCO4)n3cnc(c23)C1=O [Compound 78, 7-fluoro-12-(((5-fluoro-2,3-dihydrobenzofuran-4-yl)methyl)amino)-4-(2-fluoro-2-methylpropyl)-4,5-dihydro-3H-2,4,11,12a-tetraazabenzo[4,5] cycloocta[1,2,3-cd]inden-3-one]",34.5 nM
2,"O=C1c2ncn3c(NCc4c(F)ccc5c4CCO5)ncc(c23)-c2ccc(F)cc2CN1CCF [Compound 79, 7-fluoro-12-(((5-fluoro-2,3-dihydrobenzofuran-4-yl)methyl)amino)-4-(2-fluoroethyl)-4,5-dihydro-3H-2,4,11,12a-tetraazabenzo[4,5]cycloocta [1,2,3-cd]inden-3-one]",15.3 nM
3,"CC(F)(F)CN1Cc2cc(F)ccc2-c2cnc(NCc3c(F)ccc4c3CCO4)n3cnc(c23)C1=O [Compound 76, 4-(2,2-difluoropropyl)-7-fluoro-12-(((5-fluoro-2,3-dihydrobenzofuran-4-yl)methyl)amino)-4,5-dihydro-3H-2,4,11,12a-tetraazabenzo[4,5]cycloocta [1,2,3-cd]inden-3-one]",14.5 nM
4,"O=C1c2ncn3c(NCc4c(F)ccc5c4CCO5)ncc(c23)-c2ccc(F)cc2CN1C1CCOCC1 [Compound 65, 7-fluoro-12-(((5-fluoro-2,3-dihydrobenzofuran-4-yl)methyl)amino)-4-(tetrahydro-2H-pyran-4-yl)-4,5-dihydro-3H-2,4,11,12a-tetraazabenzo[4,5] cycloocta[1,2,3-cd]inden-3-one]",0.69 nM
5,"O=C1c2ncn3c(NCc4c(F)ccc5c4CCO5)ncc(c23)-c2ccc(F)cc2CN1C1CC1 [Compound 64, 4-cyclopropyl-7-fluoro-12-(((5-fluoro-2,3-dihydrobenzofuran-4-yl)methyl)amino)-4,5-dihydro-3H-2,4,11,12a-tetraazabenzo[4,5]cycloocta[1,2,3-cd] inden-3-one]",2.44 nM
6,"O=C1c2ncn3c(NCc4c(F)ccc5c4CCO5)ncc(c23)-c2ccc(F)cc2CN1CC(F)F [Compound 80, 4-(2,2-difluoroethyl)-7-fluoro-12-(((5-fluoro-2,3-dihydrobenzofuran-4-yl)methyl)amino)-4,5-dihydro-3H-2,4,11,12a-tetraazabenzo[4,5]cycloocta[1,2,3-cd]inden-3-one]",2.42 nM
